Assay results as given in US9850283B2, “Macrocyclic inhibitors of the PD-1/PD-L1 and CD80(B7-1)/PD-L1 protein/protein interactions” (BRISTOL-MYERS SQUIBB COMPANY, priority 2013, dated 2017).
Like-named read-outs stand apart in the source and are kept apart here. Blank lines part the entries; values can stand above or below the compound they belong to. Positions of bridges follow the written chain, without caps; N, C: chain ends. Non-standard residues stand in square brackets, D forms with d. Residues, ends and D or L forms follow the SMILES beside them. ξ: configuration not given here. Phe(3,4,5-F3) = N[C@@H](Cc1cc(F)c(F)c(F)c1)C(=O)O; Pro(4R-NH2) = N[C@H]1CN[C@H](C(=O)O)C1; Bta = N[C@@H](Cc1csc2ccccc12)C(=O)O; Hyp = O=C(O)[C@@H]1C[C@@H](O)CN1; NMeF = CN[C@@H](Cc1ccccc1)C(=O)O; NMeNle = CCCC[C@H](NC)C(=O)O; Pip = O=C(O)[C@@H]1CCCCN1; dPip = O=C(O)[C@H]1CCCCN1; NMeA = CN[C@@H](C)C(=O)O; Dab = NCC[C@H](N)C(=O)O; Dap = NC[C@H](N)C(=O)O; ξP = O=C(O)C1CCCN1; Sar = CNCC(=O)O

Assays:
[1] = target: Hu PD-L1/PD-1 (Homo sapiens, UniProt Q9NZQ7); assay: Cell binding assay Hu PD-L1/PD-1 (Tables 11-13, cell line not given); type: cell-based; settings: Table 11
Chain of Hu PD-L1/PD-1 (Q9NZQ7 19-290): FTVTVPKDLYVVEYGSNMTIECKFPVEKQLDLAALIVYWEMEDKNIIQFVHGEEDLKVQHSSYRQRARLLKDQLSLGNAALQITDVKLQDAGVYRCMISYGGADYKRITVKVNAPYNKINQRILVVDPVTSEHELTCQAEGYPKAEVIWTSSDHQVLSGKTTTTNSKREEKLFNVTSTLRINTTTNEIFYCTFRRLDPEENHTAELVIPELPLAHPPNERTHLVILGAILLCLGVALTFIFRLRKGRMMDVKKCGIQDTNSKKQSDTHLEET
In short: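 Three formats. In the L2987 imaging assay, natively PD-L1-expressing cells received inhibitor and PE-PD-1-Ig for 1 h at 37 °C, followed by fixation and nuclear Hoechst staining. In the flow-cytometry assays, LK35.2 cells overexpressing hPD-L1 were pre-treated 15 min with inhibitor, then bound 2 nM PE-PD-1-Ig for 1 h at RT in RPMI/2% FCS, while Jurkat-PD-1 cells bound PE-PD-L1-Ig.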

[2] = system: CMV-specific T cells; settings: read-out: EC50, IFNγ secretion by CMV-specific T cells; FIG. 10A-C
[3] = target: T1, Human PD-L1/PD-1 (Homo sapiens, UniProt Q9NZQ7); assay: HTRF PD-1-Ig/PD-L1-His binding assay (human PD-L1)
T1 construct: made in house; host or cells: HEK293T
T1 sequence (Q9NZQ7 with tags, fused parts or gaps): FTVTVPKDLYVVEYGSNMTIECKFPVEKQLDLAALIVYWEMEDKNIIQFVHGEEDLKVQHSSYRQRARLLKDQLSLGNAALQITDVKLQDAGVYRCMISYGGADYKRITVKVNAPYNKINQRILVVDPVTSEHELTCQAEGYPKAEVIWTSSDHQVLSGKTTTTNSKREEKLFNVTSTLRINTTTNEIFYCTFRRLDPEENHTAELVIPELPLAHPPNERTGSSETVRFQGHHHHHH
In short: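 Interaction of Fc-tagged soluble PD-1 with His-tagged soluble PD-L1 is monitored by time-resolved FRET. Donor is europium cryptate anti-Ig (1 nM final) and acceptor is APC anti-His (20 nM final). Assay buffer is dPBS with 0.1% BSA and 0.05% Tween-20.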

[4] = target: CMV-specific T cells (Homo sapiens, UniProt Q9NZQ7); assay: CMV-specific T cell function assay (IFNγ secretion, ELISA); type: cell-based
Chain of CMV-specific T cells (Homo sapiens, UniProt Q9NZQ7) (Q9NZQ7 19-290): as the sequence (Q9NZQ7 19-290) above
Description: CMV-specific T Cell Function Assay. […] AIM-V medium (Life Technologies, Grand Island, N.Y.) supplemented with 10% heat-inactivated fetal bovine serum (FBS, Sigma, St Louis, Mo.) was used at a total volume of 200 µL/well in triplicate. The cells were cultured for 4 days at 37° C., 5% CO2 at which time culture supernatant was harvested for determination of secreted IFNγ by ELISA (OptEIA hIFNγ ELISA Kit, BD Biosciences, San Jose, Calif.).

[5] = target: T2, LK35.2-hPD-L1 cells / PE-labeled PD-1-Ig (Homo sapiens, UniProt Q9NZQ7); assay: LK35.2-hPD-L1 cell binding high-content screening assay; type: cell-based
T2 construct: expressed in transfected cells; host or cells: LK35.2 mouse B cell line
T2 sequence (Q9NZQ7 19-290): as above
In short: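 Binding of PE-conjugated human PD-1-Ig (1 nM final) to human PD-L1 stably expressed on a mouse B-cell line (LK35.2) was measured by high-content imaging after washes. Compound and labeled PD-1-Ig were co-incubated 1 h at 37 °C with cells in RPMI/10% FCS.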

[6] = Table 6, read-out: HTRF Human PD-L1/PD-1 Binding Assay IC50
[7] = read-out: CMV Recall EC50 value
[8] = cell line of CBA not given (LK35.2-hPD-L1 or 293T-hPD-L1), read-out: CBA IC50 value
[9] = value given instead of cluster, read-out: CMV Recall EC50 value
[10] = value given instead of cluster, read-out: HTRF IC50 value
[11] = cell binding assay, cell line not given, value given instead of cluster, read-out: CBA IC50 value

SMILES: CCCC[C@H]1C(=O)N(C)[C@@H](CCCC)C(=O)N[C@@H](CC(C)C)C(=O)N[C@H](C(=O)NCC(N)=O)CSCC(=O)N[C@@H](Cc2ccccc2)C(=O)N(C)[C@@H](C)C(=O)N[C@@H](CC(N)=O)C(=O)N2CCCC2C(=O)N[C@@H](Cc2cnc[nH]2)C(=O)N[C@@H](Cc2c[nH]cn2)C(=O)N[C@@H](CO)C(=O)N[C@@H](Cc2c[nH]c3ccccc23)C(=O)N[C@@H](CCCNC(=N)N)C(=O)N[C@@H](Cc2c[nH]c3ccccc23)C(=O)N1C (stereo partly drawn) [Compound No. 2] ({CH2CO}-F[NMeA]N[ξP]HHSWRW[NMeNle][NMeNle]LCG-NH2; thioether N-14)
IC50 [1]: 43 nM
EC50 [2]: 400 nM

SMILES: CC[C@H](C)[C@@H]1NC(=O)[C@H](CC(C)C)NC(=O)[C@H](Cc2ccccc2)NC(=O)CSC[C@@H](C(=O)NCC(N)=O)NC(=O)[C@H](CCCNC(=N)N)NC(=O)[C@H](Cc2ccccc2)NC(=O)[C@H](C(C)C)NC(=O)[C@H](CCCNC(=N)N)NC(=O)[C@H](CC(=O)O)NC(=O)[C@H](CCCNC(=N)N)NC(=O)[C@H]([C@@H](C)CC)NC(=O)[C@H](C(C)C)NC1=O [Compound No. 99] (HELM PEPTIDE1{[O=C(C[*:3])[*:2]].F.L.I.V.I.R.D.R.V.F.R.C.G.[am]}$PEPTIDE1,PEPTIDE1,1:R3-13:R3$$$V2.0)
IC50 [3, 6]: 153 nM
IC50 ([3]; Table 7, Compound No. 99 variant macrocyclic peptides, read-out: HTRF Human PD-L1/PD-1 Binding Assay IC50): 153 nM
EC50 [2]: > 10000 nM

SMILES: CCCC[C@H]1C(=O)N(C)[C@@H](CCCC)C(=O)N[C@@H](CCCNC(=N)N)C(=O)N[C@H](C(=O)NCC(N)=O)CSCC(=O)N[C@@H](Cc2ccccc2)C(=O)N(C)[C@@H](C)C(=O)N[C@@H](CC(N)=O)C(=O)N2CCCC2C(=O)N[C@@H](Cc2cnc[nH]2)C(=O)N[C@@H](CC(C)C)C(=O)N(C)CC(=O)N[C@@H](Cc2c[nH]c3ccccc23)C(=O)N[C@@H](CO)C(=O)N[C@@H](Cc2c[nH]c3ccccc23)C(=O)N1C (stereo partly drawn) [Compound No. 1] ({CH2CO}-F[NMeA]N[ξP]HL[Sar]WSW[NMeNle][NMeNle]RCG-NH2; thioether N-14)
IC50 [3, 6]: 9 nM
IC50 ([3]; Table 8, Compound No. 1 variant macrocyclic peptides, read-out: HTRF Human PD-L1/PD-1 Binding Assay IC50): 9 nM
EC50 [2]: 400 nM

SMILES: CCCC[C@H]1C(=O)N(C)CC(=O)N[C@@H](CC(=O)O)C(=O)N[C@@H](C(C)C)C(=O)N(C)[C@@H](Cc2ccccc2)C(=O)N[C@@H](Cc2ccc(O)cc2)C(=O)N(C)CC(=O)N[C@@H](Cc2c[nH]c3ccccc23)C(=O)N[C@@H](Cc2ccc(O)cc2)C(=O)N[C@@H](CC(C)C)C(=O)N[C@H](C(=O)NCC(N)=O)CSCC(=O)N[C@@H](Cc2ccccc2)C(=O)N(C)[C@@H](Cc2ccccc2)C(=O)N1C [Compound No. 71] (HELM PEPTIDE1{[O=C(C[*:3])[*:2]].F.[meF].[CCCC[C@@H](C(=O)[*:2])N(C)[*:1]].[Sar].D.V.[meF].Y.[Sar].W.Y.L.C.G.[am]}$PEPTIDE1,PEPTIDE1,1:R3-14:R3$$$V2.0)
IC50 [1]: 10 nM
IC50 [3, 6]: 7 nM
IC50 ([3]; Table 9, Compound No. 71 variant macrocyclic peptides, read-out: HTRF Human PD-L1/PD-1 Binding Assay IC50): 7 nM
EC50 [2]: 300 nM

SMILES: CCCC[C@H]1C(=O)N(C)[C@@H](CCCC)C(=O)N[C@@H](CCCNC(=N)N)C(=O)N[C@H](C(=O)NCC(N)=O)CSCC(=O)N[C@@H](Cc2ccc(O)cc2)C(=O)N2CCCC[C@H]2C(=O)N[C@@H](CC(N)=O)C(=O)N2CCC[C@H]2C(=O)N[C@@H](Cc2cnc[nH]2)C(=O)N[C@@H](CCC(=O)O)C(=O)N2C[C@H](O)C[C@H]2C(=O)N[C@@H](Cc2c[nH]c3ccccc23)C(=O)N[C@@H](CO)C(=O)N[C@@H](Cc2c[nH]c3ccccc23)C(=O)N1C [Example 1237] ({CH2CO}-Y[Pip]NPHE[Hyp]WSW[NMeNle][NMeNle]RCG-NH2; thioether N-14)
EC50 [4, 7]: 21.9 nM
IC50 ([3]; read-out: HTRF IC50 value): 16.5 nM
IC50 [5, 8]: 4.92 nM

SMILES: CCCC[C@H]1C(=O)N(C)[C@@H](CCCC)C(=O)N[C@@H](CN)C(=O)N[C@H](C(=O)NCC(N)=O)CSCC(=O)N[C@@H](Cc2ccc(O)cc2)C(=O)N(C)[C@@H](C)C(=O)N[C@@H](CC(=O)O)C(=O)N2CCC[C@H]2C(=O)N[C@@H](CN)C(=O)N[C@@H](CC(C)C)C(=O)N2C[C@H](O)C[C@H]2C(=O)N[C@@H](Cc2c[nH]c3ccccc23)C(=O)N[C@@H](CO)C(=O)N[C@@H](Cc2csc3ccccc23)C(=O)N1C [Example 1163] ({CH2CO}-Y[NMeA]DP[Dap]L[Hyp]WS[Bta][NMeNle][NMeNle][Dap]CG-NH2; thioether N-14)
EC50 [4, 7]: 2.93 nM
IC50 ([3]; read-out: HTRF IC50 value): 6.24 nM
IC50 [5, 8]: 4.04 nM

More lines, now with the values ahead:

EC50 [4, 9]: 2.3 nM
IC50 [3, 10]: 7.43 nM
IC50 [5, 11]: 1.16 nM
SMILES: CCCC[C@H]1C(=O)N(C)[C@@H](CCCC)C(=O)N[C@@H](CCCNC(=N)N)C(=O)N[C@H](C(=O)NCC(N)=O)CSCC(=O)N[C@@H](Cc2ccc(O)cc2)C(=O)N(C)[C@@H](C)C(=O)N[C@@H](CCN)C(=O)N2CCC[C@H]2C(=O)N[C@@H](Cc2cnc[nH]2)C(=O)N[C@@H](CCC(=O)O)C(=O)N2C[C@H](O)C[C@H]2C(=O)N[C@@H](Cc2c[nH]c3ccccc23)C(=O)N[C@@H](CO)C(=O)N[C@@H](Cc2c[nH]c3ccccc23)C(=O)N1C [Example 5025] ({CH2CO}-Y[NMeA][Dab]PHE[Hyp]WSW[NMeNle][NMeNle]RCG-NH2; thioether N-14)

EC50 [4, 9]: 103 nM
IC50 [3, 10]: 5.33 nM
IC50 [5, 11]: 6.75 nM
SMILES: CCCC[C@H]1C(=O)N(C)[C@@H](CCCC)C(=O)N[C@@H](CO)C(=O)N[C@H](C(=O)NCC(N)=O)CSCC(=O)N[C@@H](Cc2ccc(O)cc2)C(=O)N(C)[C@@H](C)C(=O)N[C@@H](CC(=O)O)C(=O)N2CCC[C@H]2C(=O)N[C@@H](CO)C(=O)N[C@@H](CO)C(=O)N2C[C@H](O)C[C@H]2C(=O)N[C@@H](Cc2c[nH]c3ccccc23)C(=O)N[C@@H](CO)C(=O)N[C@@H](Cc2c[nH]c3ccccc23)C(=O)N1C [Example 5117] ({CH2CO}-Y[NMeA]DPSS[Hyp]WSW[NMeNle][NMeNle]SCG-NH2; thioether N-14)

EC50 [4, 7]: 25.2 nM
IC50 ([3]; read-out: HTRF IC50 value): 4.39 nM
IC50 [5, 8]: 1.15 nM
SMILES: CCCC[C@H]1C(=O)N2CCC[C@@H]2C(=O)N2C[C@H](N)C[C@H]2C(=O)N[C@@H](C(C)C)C(=O)N(C)[C@@H](Cc2ccccc2)C(=O)N[C@@H](Cc2ccc(O)cc2)C(=O)N2CCCC[C@@H]2C(=O)N[C@@H](Cc2c[nH]c3ccccc23)C(=O)N[C@@H](Cc2ccc(O)cc2)C(=O)N[C@@H](CC(C)C)C(=O)N[C@H](C(=O)NCC(N)=O)CSCC(=O)N[C@@H](Cc2cc(F)c(F)c(F)c2)C(=O)N(C)[C@@H](Cc2ccccc2)C(=O)N1C [Example 3194] ({CH2CO}-[Phe(3,4,5-F3)][NMeF][NMeNle][dP][Pro(4R-NH2)]V[NMeF]Y[dPip]WYLCG-NH2; thioether N-13)

EC50 [4, 9]: 14.5 nM
IC50 [3, 10]: 5.15 nM
IC50 [5, 11]: 2.28 nM
SMILES: CCCC[C@H]1C(=O)N(C)[C@@H](CCCC)C(=O)N[C@@H](CN)C(=O)N[C@H](C(=O)NCC(N)=O)CSCC(=O)N[C@@H](Cc2ccc(O)cc2)C(=O)N(C)[C@@H](C)C(=O)N[C@@H](CC(N)=O)C(=O)N2CCC[C@H]2C(=O)N[C@@H](Cc2cnc[nH]2)C(=O)N[C@@H](CCC(=O)O)C(=O)N2C[C@H](O)C[C@H]2C(=O)N[C@@H](Cc2c[nH]c3ccccc23)C(=O)N[C@@H](CO)C(=O)N[C@@H](Cc2c[nH]c3ccccc23)C(=O)N1C [Example 5062] ({CH2CO}-Y[NMeA]NPHE[Hyp]WSW[NMeNle][NMeNle][Dap]CG-NH2; thioether N-14)

EC50 ([4]; numeric value, read-out: CMV Recall EC50 values): 112 nM
IC50 ([3]; numeric value, read-out: HTRF IC50 values): 14.9 nM
IC50 ([5]; cell binding assay, cell line not given, numeric value, read-out: CBA IC50 values): 19.5 nM
SMILES: CCCC[C@H]1C(=O)N[C@@H](CCCNC(=N)N)C(=O)NC(C(=O)NCC(N)=O)CSCC(=O)N[C@@H](Cc2ccc(O)cc2)C(=O)N(C)[C@@H](C)C(=O)N[C@@H](CC(N)=O)C(=O)N2CCC[C@H]2C(=O)N[C@@H](Cc2cnc[nH]2)C(=O)N[C@@H](CC(C)C)C(=O)N2C[C@H](O)C[C@H]2C(=O)N[C@@H](Cc2c[nH]c3ccccc23)C(=O)N[C@@H](CO)C(=O)N[C@@H](Cc2c[nH]c3ccccc23)C(=O)N(C)[C@@H](C)C(=O)N1C (stereo partly drawn) [Example 9057]
